In ChEMBL document CHEMBL5042496, “An unanticipated discovery towards novel naphthalimide corbelled aminothiazoximes as potential anti-MRSA agents and allosteric modulators for PBP2a” (Eur J Med Chem, 2022):
Values after ≈ are worked out from the molar mass of the structure shown. Active and inactive are the calls of the source. The rule behind the calls is not given here.

Experiments:
[1] = tested on: Staphylococcus; assay: Binding affinity to Staphylococcus aureus PBP2a measured after 6 hrs by ELISA; conditions: filed as positive allosteric modulator
[2] = Hemolytic activity in human RBC assessed as hemolysis incubated for 1 hr; format: toxicity, cell-based, Erythrocyte; conditions: red blood cells
[3] = tested on: Enterococcus faecium; assay: Antibacterial activity against Enterococcus faecium assessed as bacterial growth inhibition measured after 24 hrs by two fold serial dilution technique; format: functional
[4] = tested on: Pseudomonas aeruginosa; assay: Antibacterial activity against Pseudomonas aeruginosa ATCC 27853 assessed as bacterial growth inhibition measured after 24 hrs by two fold serial dilution technique; format: functional
[5] = tested on: Escherichia coli; assay: Antibacterial activity against Escherichia coli ATCC 25922 assessed as bacterial growth inhibition measured after 24 hrs by two fold serial dilution technique; format: functional
[6] = tested on: Staphylococcus aureus; assay: Antibacterial activity against methicillin-resistant Staphylococcus aureus assessed as bacterial growth inhibition measured after 24 hrs by two fold serial dilution technique; format: functional
[7] = tested on: Escherichia coli; assay: Antibacterial activity against Escherichia coli assessed as bacterial growth inhibition measured after 24 hrs by two fold serial dilution technique; format: functional
[8] = tested on: Pseudomonas aeruginosa; assay: Antibacterial activity against Pseudomonas aeruginosa assessed as bacterial growth inhibition measured after 24 hrs by two fold serial dilution technique; format: functional
[9] = tested on: Staphylococcus aureus; assay: Antibacterial activity against Staphylococcus aureus ATCC 25923 assessed as bacterial growth inhibition measured after 24 hrs by two fold serial dilution technique; format: functional
[10] = tested on: Klebsiella pneumoniae; assay: Antibacterial activity against Klebsiella pneumoniae assessed as bacterial growth inhibition measured after 24 hrs by two fold serial dilution technique; format: functional
[11] = tested on: Staphylococcus aureus; assay: Antibacterial activity against Staphylococcus aureus assessed as bacterial growth inhibition measured after 24 hrs by two fold serial dilution technique; format: functional
[12] = tested on: Staphylococcus aureus; assay: Antibacterial activity against Staphylococcus aureus ATCC 29213 assessed as bacterial growth inhibition measured after 24 hrs by two fold serial dilution technique; format: functional
[13] = tested on: Acinetobacter baumannii; assay: Antibacterial activity against Acinetobacter baumannii assessed as bacterial growth inhibition measured after 24 hrs by two fold serial dilution technique; format: functional
[14] = tested on: Staphylococcus aureus; assay: Antibacterial activity against methicillin resistant Staphylococcus aureus treated over 16 serial passages measured after 24 hrs by resistance development assay; format: functional, organism-based
[15] = biological target: T1, MecA (Staphylococcus aureus) (UniProt Q7DHH4); assay: Binding affinity to Staphylococcus aureus PBP2a measured after 6 hrs by ELISA in the presence of Norfloxacin; conditions: filed as positive allosteric modulator
T1 sequence (whole entry): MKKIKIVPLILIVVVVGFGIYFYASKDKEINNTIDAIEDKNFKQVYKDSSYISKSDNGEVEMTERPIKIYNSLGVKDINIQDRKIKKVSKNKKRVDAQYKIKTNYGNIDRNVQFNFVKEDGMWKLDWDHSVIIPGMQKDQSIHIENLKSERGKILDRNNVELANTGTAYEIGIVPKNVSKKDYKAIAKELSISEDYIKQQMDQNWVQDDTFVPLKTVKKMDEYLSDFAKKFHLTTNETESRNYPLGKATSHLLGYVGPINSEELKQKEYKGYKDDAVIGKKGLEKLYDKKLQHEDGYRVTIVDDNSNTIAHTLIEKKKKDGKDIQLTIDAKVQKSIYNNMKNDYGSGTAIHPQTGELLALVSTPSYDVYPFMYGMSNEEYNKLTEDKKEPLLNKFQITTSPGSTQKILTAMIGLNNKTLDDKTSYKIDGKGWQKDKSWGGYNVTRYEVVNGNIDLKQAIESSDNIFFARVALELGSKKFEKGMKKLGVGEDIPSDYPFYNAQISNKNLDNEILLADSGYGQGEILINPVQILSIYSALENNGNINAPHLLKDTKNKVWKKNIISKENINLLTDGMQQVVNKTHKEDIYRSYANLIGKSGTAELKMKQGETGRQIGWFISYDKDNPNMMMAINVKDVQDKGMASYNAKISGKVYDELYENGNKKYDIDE

[16] = tested on: Staphylococcus aureus; assay: Antibacterial activity against methicillin-resistant Staphylococcus aureus assessed as inhibition of bacterial growth at 1 time MIC measured after 2 hrs; format: functional, organism-based
[17] = tested on: Cell membrane; assay: Induction of inner membrane permeabilization in methicillin-resistant Staphylococcus aureus at 1 time MIC measured for 1 hr by PI dye-based fluorescence assay; conditions: TDE = time-dependent effect
[18] = tested on: Cell membrane; assay: Induction of inner membrane permeabilization in methicillin-resistant Staphylococcus aureus at 2 times MIC measured for 1 hr by PI dye-based fluorescence assay; conditions: TDE = time-dependent effect
[19] = tested on: Staphylococcus aureus; assay: Antibacterial activity against methicillin-resistant Staphylococcus aureus assessed as inhibition of bacterial growth at 0.5 time MIC measured after 2 hrs; format: functional, organism-based
[20] = tested on: Staphylococcus aureus; assay: Antibacterial activity against methicillin-resistant Staphylococcus aureus assessed as inhibition of bacterial growth at 2 time MIC measured after 2 hrs; format: functional, organism-based
[21] = tested on: Cell membrane; assay: Induction of membrane depolarization in methicillin-resistant Staphylococcus aureus at MIC measured upto 1 hr by DiSC35 dye-based fluorescence assay; conditions: time hrs <=1, TDE = time-dependent effect
[22] = tested on: Staphylococcus aureus; assay: Induction of ROS generation in methicillin-resistant Staphylococcus aureus after 6 hrs by DCFH-DA staining based fluorescence assay; format: functional, organism-based
[23] = tested on: Staphylococcus aureus; assay: Antibacterial activity against methicillin-resistant Staphylococcus aureus assessed as pitted cell structures at 1 time MIC incubated for 8 hrs by SEM analysis; format: functional, organism-based
[24] = tested on: Cell membrane; assay: Induction of cell membrane disruption in methicillin-resistant Staphylococcus aureus assessed as increase in protein leakage measured after 6 hrs by Bradford assay
[25] = tested on: DNA; assay: Binding affinity to DNA (unknown origin) assessed as decrease in maximum absorption peak at 410nm at 3 10^-5 mol/L by UV spectrophotometric analysis; format: functional; conditions: Homo sapiens
[26] = tested on: Staphylococcus aureus; assay: Antibacterial activity against methicillin-resistant Staphylococcus aureus assessed as respiratory pathway inactivation by measuring decrease in LDH activity at MIC incubated for 6 hrs by LDH assay; format: functional; set-up: scale not given: the % may be the effect or the level left
[27] = species on record: Homo sapiens; assay: Binding affinity to lipase (unknown origin) assessed as decrease in fluorescence intensity measured after 5 mins by fluorescence spectrofluorometric analysis
[28] = tested on: Staphylococcus aureus; assay: Antibacterial activity against methicillin-resistant Staphylococcus aureus assessed as disrupted cell shapes at 1 time MIC incubated for 8 hrs by SEM analysis; format: functional, organism-based
[29] = tested on: Staphylococcus aureus; assay: Antibacterial activity against methicillin-resistant Staphylococcus aureus assessed as respiratory pathway inactivation by measuring decrease in LDH activity measured after 6 hrs by LDH assay; format: functional, organism-based
[30] = tested on: DNA; assay: Binding affinity to DNA (unknown origin) assessed as decrease in fluorescence intensity at 5 10^-5 mol/L by acridine orange staining based fluorescence microscopic analysis; format: functional; conditions: Homo sapiens
[31] = tested on: DNA; assay: Binding affinity to DNA (unknown origin) assessed as hypochromicity at 0.2 to 0.8 10^-5 mol/L by UV spectrophotometric analysis; format: functional; conditions: Homo sapiens; dose 0.2-0.8 10^-5mol/L
[32] = tested on: L929; assay: Cytotoxicity against mouse L929 cells assessed as reduction in cell viability at 0.39 to 100 ug/ml incubated for 24 hrs by MTT assay; format: toxicity, cell-based; conditions: l929, 24 h, dose 0.39-100 µg/ml
[33] = biological target: T1, MecA (Staphylococcus aureus); assay: Binding affinity to Staphylococcus aureus PBP2a measured after 6 hrs by ELISA in the presence of Ceftizoxime; conditions: filed as positive allosteric modulator
[34] = tested on: Staphylococcus aureus; assay: Antibacterial activity against methicillin-resistant Staphylococcus aureus assessed as shriveled cell structures at 1 time MIC incubated for 8 hrs by SEM analysis; format: functional, organism-based
[35] = tested on: Staphylococcus aureus; assay: Antibacterial activity against methicillin resistant Staphylococcus aureus treated over 10 serial passages measured after 24 hrs by resistance development assay; format: functional, organism-based

CN(C)CCN1C(=O)c2cccc3c(Br)ccc(c23)C1=O
Activity [1]: 7.08 µg/mL

CO/N=C(\C(=O)N1CCN(c2ccc3c4c(cccc24)C(=O)N(OC)C3=O)CC1)c1csc(N)n1
HC50 at 1 h [2]: 513 µg/mL
Activity [1]: 5.43 µg/mL
MIC [3]: 2 µg/mL (≈ 4.04 µM)
MIC [4]: 32 µg/mL (≈ 64.7 µM)
MIC [5]: 64 µg/mL (≈ 129 µM)
MIC [6]: 128 µg/mL (≈ 259 µM)
MIC [7]: 64 µg/mL (≈ 129 µM)
MIC [8]: 128 µg/mL (≈ 259 µM)
MIC [9]: 64 µg/mL (≈ 129 µM)
MIC [10]: 128 µg/mL (≈ 259 µM)
MIC [11]: 128 µg/mL (≈ 259 µM)
MIC [12]: 64 µg/mL (≈ 129 µM)
MIC [13]: 4 µg/mL (≈ 8.09 µM)

CN(C)CCN1C(=O)c2cccc3c(N4CCNCC4)ccc(c23)C1=O
Activity [1]: 4.74 µg/mL

CO/N=C(\C(=O)N1CCN(c2ccc3c4c(cccc24)C(=O)N(CCN(C)C)C3=O)CC1)c1csc(N)n1
Activity [14]: Active
Activity [15]: 4.96 ng/mL
Activity [16]: Active
Activity [17]: Tde
HC50 at 1 h [2]: 205 µg/mL
Activity [1]: 4.58 µg/mL
MIC [3]: 4 µg/mL (≈ 7.47 µM)
Activity [18]: Tde
MIC [4]: 8 µg/mL (≈ 14.9 µM)
Activity [19]: Active
MIC [5]: 16 µg/mL (≈ 29.9 µM)
Activity [20]: Active
Activity [21]: Tde
Activity [22]: Dose-Dependent Effect
Activity [23]: Active
MIC [6]: 0.5 µg/mL (≈ 0.933 µM)
Activity [24]: Dose-Dependent Effect
Activity [25]: Active
Activity [26]: 45%
Activity [27]: Active
Activity [28]: Active
MIC [7]: 2 µg/mL (≈ 3.73 µM)
MIC [8]: 16 µg/mL (≈ 29.9 µM)
MIC [9]: 8 µg/mL (≈ 14.9 µM)
Activity [29]: Dose-Dependent Effect
MIC [10]: 4 µg/mL (≈ 7.47 µM)
Activity [30]: Active
MIC [11]: 16 µg/mL (≈ 29.9 µM)
Activity [31]: Active
MIC [12]: 4 µg/mL (≈ 7.47 µM)
Activity [32]: Non-Toxic
Activity [33]: 1.29 ng/mL
Activity [34]: Active
MIC [13]: 16 µg/mL (≈ 29.9 µM)

CO/N=C(\C(=O)N[C@@H]1C(=O)N2C(C(=O)O)=CCS[C@H]12)c1csc(N)n1
Activity [1]: 7.45 µg/mL

CCn1cc(C(=O)O)c(=O)c2cc(F)c(N3CCNCC3)cc21 [NORFLOXACIN]
Activity [35]: inactive
Activity [1]: 7.67 µg/mL
MIC [3]: 8 µg/mL (≈ 25.1 µM)
MIC [4]: 2 µg/mL (≈ 6.26 µM)
MIC [5]: 4 µg/mL (≈ 12.5 µM)
MIC [6]: 16 µg/mL (≈ 50.1 µM)
MIC [7]: 2 µg/mL (≈ 6.26 µM)
MIC [8]: 4 µg/mL (≈ 12.5 µM)
MIC [9]: 16 µg/mL (≈ 50.1 µM)
MIC [10]: 4 µg/mL (≈ 12.5 µM)
MIC [11]: 8 µg/mL (≈ 25.1 µM)
MIC [12]: 16 µg/mL (≈ 50.1 µM)
MIC [13]: 1 µg/mL (≈ 3.13 µM)

CO/N=C(\C(=O)N1CCN(c2ccc3c4c(cccc24)C(=O)N(CCC(=O)O)C3=O)CC1)c1csc(N)n1
HC50 at 1 h [2]: 210 µg/mL
MIC [3]: 16 µg/mL (≈ 29.8 µM)
MIC [4]: 32 µg/mL (≈ 59.6 µM)
MIC [5]: 64 µg/mL (≈ 119 µM)
MIC [6]: 8 µg/mL (≈ 14.9 µM)
MIC [7]: 8 µg/mL (≈ 14.9 µM)
MIC [8]: 16 µg/mL (≈ 29.8 µM)
MIC [9]: 16 µg/mL (≈ 29.8 µM)
MIC [10]: 128 µg/mL (≈ 239 µM)
MIC [11]: 64 µg/mL (≈ 119 µM)
MIC [12]: 64 µg/mL (≈ 119 µM)
MIC [13]: 16 µg/mL (≈ 29.8 µM)

CO/N=C(\C(=O)N1CCN(c2ccc3c4c(cccc24)C(=O)N(c2nc4ccccc4[nH]2)C3=O)CC1)c1csc(N)n1
HC50 at 1 h [2]: 367 µg/mL
MIC [3]: 128 µg/mL (≈ 220 µM)
MIC [4]: 32 µg/mL (≈ 55.1 µM)
MIC [5]: 16 µg/mL (≈ 27.6 µM)
MIC [6]: 4 µg/mL (≈ 6.89 µM)
MIC [7]: 256 µg/mL (≈ 441 µM)
MIC [8]: 16 µg/mL (≈ 27.6 µM)
MIC [9]: 128 µg/mL (≈ 220 µM)
MIC [10]: 8 µg/mL (≈ 13.8 µM)
MIC [11]: 128 µg/mL (≈ 220 µM)
MIC [12]: 128 µg/mL (≈ 220 µM)
MIC [13]: 128 µg/mL (≈ 220 µM)
